{
  "source": "paper PMC9380258",
  "about": "“Primary and secondary functions of HLA-E are determined by stability and conformation of the peptide-bound complexes” (Cell Reports, 2022)",
  "key": {"HLA-E [1]": {"tested_on": "HLA-E", "design": "method as in Walters et al. 2020", "conditions": "sandwich ELISA (3D12 anti-HLA-E capture, anti-β2M detection) after peptide exchange; normalised signal as percentage of positive control VL9 signal; previously published; ref Walters et al. 2020; cited from earlier work"}, "HLA-E [2]": {"tested_on": "HLA-E", "assay_type": "binding, human", "conditions": "for Tm (°C) 12M, HLA-E-β2M-peptide complex thermal stability: pH 8"}, "HLA-E*01:03": {"target": "HLA-E*01:03 (Homo sapiens, UniProt P13747)", "assay": "SEC-SAXS of peptide-refolded HLA-E*01:03 complexes"}},
  "note": "Like-named read-outs stand apart in the source and are kept apart here.",
  "data": [
    {"sequence": "EIEVDDDLIQK [EK11]", "values": [
      {"measurement": "ELISA Rank (%VL9 binding)", "setting": "HLA-E [1]", "result": "minimal binding"}
    ]},
    {"sequence": "EKQRESREK [EK9]", "values": [
      {"measurement": "ELISA Rank (%VL9 binding)", "setting": "HLA-E [1]", "result": "< 10", "unit": "%"}
    ]},
    {"sequence": "QAISPRTLN [Neg Ctrl pep, reference compound]", "values": [
      {"measurement": "ELISA Rank (%VL9 binding)", "setting": "HLA-E [1]", "result": 0.3, "unit": "%"},
      {"measurement": "Tm (°C) 12M, HLA-E-β2M-peptide complex thermal stability", "setting": "HLA-E [2]", "result": 31.8, "unit": "°C"}
    ]},
    {"sequence": "RLPAKAPLL [Mtb44]", "values": [
      {"measurement": "ELISA Rank (%VL9 binding)", "setting": "HLA-E [1]", "result": 97, "unit": "%"},
      {"measurement": "Tm (°C) 12M, HLA-E-β2M-peptide complex thermal stability", "setting": "HLA-E [2]", "result": 50.6, "unit": "°C"}
    ]},
    {"sequence": "RMAATAQVL [Mtb14]", "values": [
      {"measurement": "Molecular envelope Vol %change", "setting": "HLA-E*01:03", "result": "−32", "unit": "%"},
      {"measurement": "ELISA Rank (%VL9 binding)", "setting": "HLA-E [1]", "result": 48, "unit": "%"},
      {"measurement": "Tm (°C) 12M, HLA-E-β2M-peptide complex thermal stability", "setting": "HLA-E [2]", "result": 37.8, "unit": "°C"}
    ]},
    {"sequence": "RMYNPTNIL [RL9SIV]", "values": [
      {"measurement": "Molecular envelope Vol %change", "setting": "HLA-E*01:03", "result": "−34", "unit": "%"},
      {"measurement": "ELISA Rank (%VL9 binding)", "setting": "HLA-E [1]", "result": 22, "unit": "%"},
      {"measurement": "Tm (°C) 12M, HLA-E-β2M-peptide complex thermal stability", "setting": "HLA-E [2]", "result": 35.2, "unit": "°C"}
    ]},
    {"sequence": "RMYSPTSIL [RL9HIV]", "values": [
      {"measurement": "Molecular envelope Vol %change", "setting": "HLA-E*01:03; % change in model volume following 120 μM excess peptide addition", "result": "−42", "unit": "%"},
      {"measurement": "ELISA Rank (%VL9 binding)", "setting": "HLA-E [1]", "result": 43, "unit": "%"},
      {"measurement": "Tm (°C) 12M, HLA-E-β2M-peptide complex thermal stability", "setting": "HLA-E [2]", "result": 38.2, "unit": "°C"}
    ]},
    {"sequence": "SQAPLPCVL [BZLF1]", "values": [
      {"measurement": "Dmax (Å), maximum dimension", "setting": "HLA-E*01:03", "result": 108, "unit": "Å"},
      {"measurement": "Molecular envelope Vol (Å3)", "setting": "HLA-E*01:03", "result": "107,950 Å3"},
      {"measurement": "ELISA Rank (%VL9 binding)", "setting": "HLA-E [1]", "result": 41, "unit": "%"},
      {"measurement": "Tm (°C) 12M, HLA-E-β2M-peptide complex thermal stability", "setting": "HLA-E [2]", "result": 37.7, "unit": "°C"}
    ]},
    {"sequence": "VMAPRTQLL [VL9 P7Q]", "values": [
      {"measurement": "drop in thermal stability", "setting": "HLA-E [2]", "result": 6.6, "unit": "°C"}
    ]},
    {"sequence": "VMAPRTVLL [VL9, reference compound]", "values": [
      {"measurement": "ELISA Rank (%VL9 binding)", "setting": "HLA-E [1]", "result": 100, "unit": "%"},
      {"measurement": "Tm (°C) 12M, HLA-E-β2M-peptide complex thermal stability", "setting": "HLA-E [2]", "result": 49.4, "unit": "°C"}
    ]}
  ]
}
